Entries after “also recorded” stand apart in the source; their conditions may differ.
How the values were obtained:
[1] = system: DNA in MED1 or HP1α droplets; assay: Cisplatin-DNA engagement assay; format: biochemical; conditions: size-shift on a bioanalyzer; cisplatin 0-2 mM
Protocol: MED1-IDR-BFP and HP1a-BFP droplets were formed by mixing 10 μM protein with the droplet formation buffer containing 50 mM Tris-HCl pH 7.5, 100 mM NaCl, 10% PEG 8000, 10% glycerol, 1 mM DTT and 5 ng/ul DNA in a 10 μl reaction volume. The droplet reactions were incubated for 30 min at RT. Next, increasing concentrations of activated Cisplatin (0, 0.5, 0.75, 1, 1.5, and 2 mM) were added to the droplet reactions and incubated for another 30 min at RT. The reactions are then treated with 1 μl of Proteinase K (Invitrogen, 20 mg/ml) for 4 hr at 55° C. Platination of DNA was visualized by size-shift on a bioanalyzer.

[2] = system: platinated DNA in HCT116 cells; assay: Cisplatin/condensate co-immunofluorescence; format: cell-based, human; conditions: HCT116, 50 μM cisplatin for 6 hours
Protocol: HCT116 cells were plated in 24-well plate at 50 k cells per well to yield 100 k cells after 21 hours (doubling time of HCTs). Cells were permeabilized using a solution of Tx100 in media at 0.55 pmol/cell for 12 minutes at 37° C. Cells were then washed with 500 ul media and treated with 500 ul of 50 uM cisplatin in media for 6 hours. After 6 hours, the cells were washed once with room temperature PBS and then fixed with 500 uL 4% formaldehyde in PBS for 12 min at room temperature. The cells were then washed 3 more times with PBS. Coverslips were put into a humidifying chamber or stored at 4° C. in PBS. Permeabilization of cells were performed using 0.5% Triton X-100 (Sigma Aldrich, X100) in PBS for 10 minutes followed by three PBS washes. Cells were blocked with 4% IgG-free Bovine Serum Albumin, BSA, (VWR, 102643-516) for 30 minutes and the primary antibody was added at a concentration of 1:500 in PBS for 4-16 hours. […]
For the analysis of co-immunofluorescence data, custom python scripts were written to both process and analyze the 3D image data from IF and DAPI channels. Nuclei were detected using the Triangle thresholding method and a nuclear mask was applied the IF channels. […] Percentage of cisplatin overlap was calculated by the number of defined nuclear cisplatin puncta that overlapped with the protein of interest puncta divided by the total number of nuclear cisplatin puncta.

[3] = system: super-enhancers in Hela cells; conditions: cisplatin treated Hela cells, published data (41); cited from earlier work
[4] = Droplet formation assay of small molecule alone without any protein; format: physicochemical; conditions: without any protein added
Protocol: Recombinant BFP, GFP, or mCherry fusion proteins were concentrated and desalted to an appropriate protein concentration and 125 mM NaCl using Amicon Ultra centrifugal filters (30K MWCO, Millipore). […] […] The protein solution was immediately loaded onto glass bottom 384 well plate (Cellvis P384-1.5H-N) and imaged with an Andor confocal microscope with a 150× objective. Unless indicated, images presented are of droplets settled on the glass coverslip.

[5] = system: MED1 genomic occupancy in HCT116 cells; assay: MED1 ChIP-seq in HCT116 cells; format: cell-based, human; conditions: 50 μM cisplatin for 6 hours
[6] = target: T1, MED1 aromatic mutant (Homo sapiens, UniProt Q15648, F1031A/F1273A/F1351A/F1564A/F657A/F708A/F713A/F724A/F821A/F826A/F858A/F859A/F865A/F878A/F883A/F895A/F898A/F920A/F931A/W1533A/Y1083A/Y1132A/Y1431A/Y1456A/Y1476A/Y1492A/Y661A/Y752A/Y835A/Y882A); assay: In vitro droplet assay with MED1 aromatic mutant; format: binding; conditions: 10% PEG, 125 mM NaCl, 10 μM protein, 5 μM small molecule
T1 construct: MED1—aromatic mutant amino acids 600-1581, all aromatic residues changed to alanine; 6xHis (N); made in house; host or cells: LOBSTR cells (E. coli)
Protocol: MED1—aromatic mutant amino acids 600-1581, all aromatic residues changed to alanine.
Recombinant BFP, GFP, or mCherry fusion proteins were concentrated and desalted to an appropriate protein concentration and 125 mM NaCl using Amicon Ultra centrifugal filters (30K MWCO, Millipore). Recombinant protein was added too. […] The protein solution was immediately loaded onto glass bottom 384 well plate (Cellvis P384-1.5H-N) and imaged with an Andor confocal microscope with a 150× objective. Unless indicated, images presented are of droplets settled on the glass coverslip.
To analyze in vitro droplet experiments, custom Python scripts using the scikit-image package were written to identify droplets and characterize their size, shape and intensity. […] After segmentation, mean intensity for each droplet was calculated while excluding pixels near the phase interface, and background-corrected by subtracting intensity of dark images of droplet formation buffer only. Droplets identified in the channel of the fluorescent protein from ten independent fields of view were quantified for each experiment. The maximum intensity of signal within the droplets was calculated for each channel, the maximum intensity in the drug channel was termed “maximum drug intensity”. […]

## N.N.[Cl][Pt][Cl] [cisplatin]
[1]
  DNA platination in MED1 versus HP1α condensates: more efficiently platinated in MED1 condensates than in HP1α condensates
[2]
  colocalization of platinated DNA with nuclear condensates: frequently colocalized with MED1 condensates, but not with HP1α or FIB1 condensates
[3]
  location of cisplatin-modified DNA (platinated-DNA pull-down sequencing): preferentially occurs at super-enhancers
[4]
  droplet formation of small molecule alone: diffuse fluorescent signal
[5]
  MED1 ChIP-seq signal after cisplatin: preferential loss of MED1 ChIP-seq signal at super-enhancers; also recorded: reduced
[6]
  partitioning into MED1 aromatic mutant droplets: no longer partitioned; also recorded: substantially reduced
